# Measured values published in patent US10201558B2, “Compositions of selenoorganic compounds and methods of use thereof” (Alltech, Inc., priority 2014, dated 2019).
# System: NOTCH signaling molecules in IMR-32 cells
# Assay: QRT-PCR of key NOTCH signaling molecules in IMR-32 cells
# Assay type: cell-based, human
# Details: 150 ppb; for HER2 mRNA expression (mean ± sem) / HES1 mRNA expression (mean ± sem) / HEY1 mRNA expression (mean ± sem) / NFKB1 mRNA expression (mean ± sem) / NFKB2 mRNA expression (mean ± sem) / NOTCH 1 mRNA expression (mean ± sem) / NOTCH 2 mRNA expression (mean ± sem) / NOTCH 3 mRNA expression (mean ± sem) / RBPJ mRNA expression (mean ± sem): control 100
# Method: QRT-PCR analysis of several Notch signaling molecules was performed in IMR-32 cells to test if Compound C is toxic to the Notch signaling in vitro. In brief, IMR-32 cells were treated with a water control and 150 ppb Compound C in 10% FBS containing MEM media for 6 hours, 24 hours, and 48 hours. These molecules were selected based on the IPA GO search.
structure (smiles),measurement,setting,value
"C[Se]C[C@H]1O[C@@H](n2cnc3c(N)ncnc32)C(O)C1O (stereo in doubt) [Compound C, 5′-deoxy-5′-methylselenoadenosine]",NOTCH 4 mRNA expression,6 hours treatment (cell spans control and #C),Undetected
same,HER2 mRNA expression (mean ± sem),6 hours treatment,96 ± 4 (4)
same,HES1 mRNA expression (mean ± sem),6 hours treatment,101 ± 6 (4)
same,HEY1 mRNA expression (mean ± sem),6 hours treatment,120 ± 9 (4)
same,NFKB1 mRNA expression (mean ± sem),6 hours treatment,112 ± 7 (4)
same,NFKB2 mRNA expression (mean ± sem),6 hours treatment,103 ± 7 (4)
same,NOTCH 1 mRNA expression (mean ± sem),6 hours treatment,94 ± 7 (4)
same,NOTCH 2 mRNA expression (mean ± sem),6 hours treatment,95 ± 16 (4)
same,NOTCH 3 mRNA expression (mean ± sem),6 hours treatment,95 ± 7 (4)
same,RBPJ mRNA expression (mean ± sem),6 hours treatment,trend of increased expression
same,RBPJ mRNA expression (mean ± sem),"6 hours treatment, listed as #C",144 ± 12 (4)
same,expression of all tested Notch signaling genes,"6 hours, 24 hours and 48 hours",did not significantly inhibit
same,NOTCH 4 mRNA expression,24 hours treatment (cell spans control and #C),Undetected
same,HER2 mRNA expression (mean ± sem),24 hours treatment,100 ± 11
same,HES1 mRNA expression (mean ± sem),24 hours treatment,102 ± 18
same,HEY1 mRNA expression (mean ± sem),24 hours treatment,121 ± 10
same,NFKB1 mRNA expression (mean ± sem),24 hours treatment,106 ± 11
same,NFKB2 mRNA expression (mean ± sem),24 hours treatment,85 ± 28 (3)
same,NOTCH 1 mRNA expression (mean ± sem),24 hours treatment,89 ± 10 (3)
same,NOTCH 2 mRNA expression (mean ± sem),24 hours treatment,103 ± 27
same,NOTCH 3 mRNA expression (mean ± sem),24 hours treatment,105 ± 14
same,RBPJ mRNA expression (mean ± sem),24 hours treatment,119 ± 37
same,HER2 mRNA expression (mean ± sem),48 hours treatment,106 ± 23
same,HES1 mRNA expression (mean ± sem),48 hours treatment,115 ± 9 (4)
same,HEY1 mRNA expression (mean ± sem),48 hours treatment,115 ± 11
same,NFKB1 mRNA expression (mean ± sem),48 hours treatment,109 ± 12
same,NFKB2 mRNA expression (mean ± sem),48 hours treatment,97 ± 14 (4)
same,NOTCH 1 mRNA expression (mean ± sem),48 hours treatment,90 ± 9 (3)
same,NOTCH 2 mRNA expression (mean ± sem),48 hours treatment,94 ± 40 (3)
same,NOTCH 3 mRNA expression (mean ± sem),48 hours treatment,81 ± 23 (4)
same,RBPJ mRNA expression (mean ± sem),48 hours treatment,97 ± 7 (4)
